From the METLIN SMRT retention time set (Domingo-Almenara et al. 2019) come the findings set out here.

The nature of the data set: gradient 5% acetonitrile 3 min, to 50% in 2 min, to 85% in 15 min, held 3 min, 100 µL/min. To be noted: column: Zorbax Extend-C18 2.1 x 50 mm; eluents: water / acetonitrile, 0.1% formic acid. In short, it runs like this: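 Values are retention times taken from adduct peaks that software picked and an analyst inspected. The pure standards were run as mixtures of ~100 molecules on HPLC linked to a quadrupole time-of-flight mass spectrometer, in positive and negative ionization mode. A Zorbax Extend-C18 column (2.1 × 50 mm, 1.8 μm) was used at 100 μL/min with water and acetonitrile, each including 0.1% formic acid.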
With `O=C(NCCCn1nc(-c2ccc(Cl)cc2)ccc1=O)C1CCCC1`, the RP-LC retention time was determined as 798 s.
On to `Cc1ccc2nc(-c3cccc(Br)c3)c(Nc3ccccc3C)n2c1`, for which the RP-LC retention time was 849 s.
As to `CCN1CCCn2cc(S(=O)(=O)NCc3ccc(C)cc3)cc2C1=O`, the RP-LC retention time is 778 s.
`Cc1cc(OCC(=O)NCCn2nc(-c3cccnc3)ccc2=O)ccc1Cl`: the RP-LC retention time was determined as 617 s.
In turn, `Cc1ccc(-c2nc(N)n(C(=O)C3CC3)n2)cc1C` had an RP-LC retention time of 962 s.
As to `CCC(C)NC(=O)NCCn1c(-c2ccc(C)cc2)nc2cccnc21` (stereo not drawn), the RP-LC retention time came out at 650 s.
Molecule `Cc1ccccc1Nc1nc(N)nc(CN2CCN(c3ccccn3)CC2)n1` registered an RP-LC retention time of 568 s.
With `COc1ccc(C(=O)Nc2nc3c(s2)CCCC3C(=O)NCCC2=CCCCC2)cc1` (stereo not drawn) the figure was 1040 s.
Molecule `COc1ccc(NC(=O)N2CC=C(c3cn(C(C)C)c4ncccc34)CC2)cc1OC` showed an RP-LC retention time of 826 s.
The molecule `CCN(CC)C(=O)c1cc2c(s1)CCC(C(=O)NCc1cccnc1)C2` (stereo not drawn) returned an RP-LC retention time of 528 s.
`Cc1nc(-c2noc(-c3ccncc3)n2)cn1CC(=O)Nc1ccc(Cl)cc1`: the RP-LC retention time was found to be 731 s.
`CCOC(=O)c1noc2nc(C)nc(Nc3cccc(OC)c3)c12`: the RP-LC retention time came to 801 s.
On to `Cc1cccc(-c2noc(Cn3ccn(-c4cc(C)ccc4C)c(=O)c3=O)n2)c1`, for which the RP-LC retention time stood at 963 s.
In the case of `Cc1ccc(CN2C(=O)N(c3ccc(F)cc3)c3ncccc3S2(=O)=O)cc1` it was 1100 s; in that of `O=C(Cc1ccc(F)cc1)NC1CCN(c2cc(-c3ccc(Cl)cc3)[nH]n2)C1` (stereo not drawn), 789 s.
Turning to `COc1ccc(NC(=O)c2c(C)oc3nc(C)nc(N4CCOCC4)c23)cc1Cl`, the RP-LC retention time was determined as 788 s.
The molecule `CCCCN(CC)c1nc(-c2ccccc2F)nc2ccccc12` returned an RP-LC retention time of 819 s.
`O=C(Nc1nc2c(s1)CCc1ccccc1-2)c1ccc(S(=O)(=O)N2CCCC2)cc1`: the RP-LC retention time came out at 1110 s.
Take `CCOC(=O)CNC(=O)C(c1ccccc1)n1cccc1` (stereo not drawn): the RP-LC retention time came to 784 s.
Turning to `Cc1noc([C@@H]2CC(F)(F)CN2C(=O)c2ocnc2C)n1`, the RP-LC retention time was 685 s.
As to `CCOc1ccccc1NC(=O)CC1Sc2ccccc2NC1=O` (stereo not drawn), the RP-LC retention time turned out to be 829 s.
For `Cc1ccc(-c2nnc(Cc3nc(-c4ccccc4F)no3)o2)cc1F`, the RP-LC retention time stood at 1100 s.
With `CCC(=O)N1CCc2c(C(=O)N3CCN(c4ccc(OC)cc4)CC3)cccc21` the figure was 778 s; with `CSc1ccc(-c2nc3ccccn3c2Nc2ccc(C)cc2)cc1`, 781 s; with `COC(=O)c1ccc(NC(=O)N2CCC(n3cnc4cccnc43)CC2)cc1`, 652 s.
`CCOc1ccccc1NC(=O)N1CCC(n2c(C(F)(F)F)nc3cccnc32)CC1`: the RP-LC retention time was found to be 976 s.
In turn, `O=C(Nc1cnc(N2CCCC2)nc1)c1ccsc1` yielded an RP-LC retention time of 658 s.
For the molecule `Cc1ccc(-c2cc(C(=O)N3CCN(C)CC3)n(C)c2)cc1`, the RP-LC retention time worked out at 644 s.
Regarding `COC(=O)c1c(C)[nH]c(C(=O)N2CCC(CC(=O)NCc3ccccc3)CC2)c1C`, the RP-LC retention time was 716 s.
The molecule `CN1C(=O)C2CCCCN2c2ccc(C(=O)N3CCN(C(=O)c4ccco4)CC3)cc21` (stereo not drawn) returned an RP-LC retention time of 701 s.
As to `O=C(NCc1cscn1)C1CCN(S(=O)(=O)c2cccc3nsnc23)CC1`, the RP-LC retention time is 659 s.
As to `CC1=C(C(=O)OC(C)C)C(c2cccc([N+](=O)[O-])c2)C(C(=O)OC2CN(C(c3ccccc3)c3ccccc3)C2)=C(N)N1` (stereo not drawn), the RP-LC retention time was 947 s.
`COc1ccc(OC)c(NC(=O)CCc2c(C)nn(-c3cc(N(C)C)ncn3)c2C)c1` returned an RP-LC retention time of 822 s.
Turning to `Cc1ccc(S(=O)(=O)N2CCCCCC2)cc1-c1nnc(-c2ccccc2)o1`, the RP-LC retention time is 1190 s.
`Cn1c(=O)c2c3c(cnc2n(C)c1=O)C(=O)CC(c1ccc(F)cc1)C3` (stereo not drawn) had an RP-LC retention time of 940 s.
Consider `O=C(NCCCc1ccccc1)C1CCN(C(=O)N2CCOc3ccc(Cl)cc32)CC1`, for which the RP-LC retention time is 948 s.
`Cc1cc(Cl)ccc1NC(=O)C1CCN(S(C)(=O)=O)c2ccccc2O1` (stereo not drawn) yielded an RP-LC retention time of 882 s.
As to `Cc1c(-c2ccnc(N3CCC(C)CC3)n2)cnc2nc(-c3ccccc3)nn12`, the RP-LC retention time is 1320 s.
`CCOC(=O)c1c(S(=O)(=O)N2CCC(C(=O)Nc3ccc(C)c(F)c3)CC2)c(C)n(C)c1C` registered an RP-LC retention time of 924 s.
Turning to `CC(C)CCC(=O)N1CCc2nc(N3CCN(C)CC3)sc2C1`, the RP-LC retention time was 609 s.
`NC1(C(=O)N[C@@H](CCO)c2ccc(Cl)cc2)CCN(c2ncnc3[nH]ccc23)CC1` yielded an RP-LC retention time of 610 s.
`CCCCc1c(C)n(CC(=O)NCC2CCCO2)c2nc(-c3ccccc3)nn2c1=O` (stereo not drawn) had an RP-LC retention time of 831 s.
In turn, `O=C(Nc1cnn(-c2ncncc2N2CCSCC2)c1)NC1CCCCC1` gave an RP-LC retention time of 742 s.
In turn, `Cc1ccc2sc(N(CCCn3ccnc3)C(=O)c3ccc4c(c3)OCCO4)nc2c1C` gave an RP-LC retention time of 636 s.
In turn, `O=C(CN1CCCc2nc(C3CC3)ncc2C1=O)NC1CCCC1` returned an RP-LC retention time of 673 s.
In the case of `O=C(Nc1ccc(C(=O)N2CCC(C(=O)NC3CCCCC3)CC2)cc1)c1ccc(Cl)cc1` it was 835 s.
Take `COc1ccc(OC)c(NC(=O)N2CCC3(CC2)N=C(c2ccc(F)cc2)C(=O)N3)c1`: the RP-LC retention time was found to be 838 s.
In the case of `Cc1ccccc1N1CCn2c1nc1c2c(=O)n(CC(=O)O)c(=O)n1C` it was 664 s; in that of `Cc1cc(N2CCN(C)CC2)nc2ccc(NC(=S)N(C)Cc3ccccc3)cc12`, 592 s; in that of `Brc1cccc(-c2nc3ncccn3c2NCc2ccccc2)c1`, 860 s.
Turning to `COC(=O)[C@H]1[C@H]2C[C@H]3c4[nH]c5cc(OC)ccc5c4CCN3C[C@H]2C[C@@H](OC(=O)c2cc(OC)c(OC)c(OC)c2)[C@@H]1OC`, the RP-LC retention time came to 913 s.
The molecule `O=C(NC1CC1)c1cc(-c2ccccc2)ns1` came in with an RP-LC retention time of 836 s.
In the case of `COc1ccc(N2CCN(C(=O)[C@@H]3[C@H](c4cc(OC)c(OC)c(OC)c4)c4cc5c(cc4[C@H](O)[C@H]3CO)OCO5)CC2)cc1` it was 698 s; in that of `Cc1ccc(C(=O)Nc2nccnc2C(=O)NC2CCCC2)cc1`, 1040 s.
In the case of `Cc1ccccc1NS(=O)(=O)c1cc2c(=O)n(C)ncn2c1` it was 801 s; in that of `Cc1ccc(-n2nc(C)c(S(=O)(=O)N3CCC(C(=O)NCc4cccs4)CC3)c2C)cc1`, 919 s.
Turning to `COc1ccc(-c2nc(Cn3ccn4nc(-c5ccc(F)cc5)cc4c3=O)c(C)o2)cc1`, the RP-LC retention time stood at 670 s.
On to `Cc1cc(C)n(-c2ccc(=O)n(CCNS(=O)(=O)c3ccccc3C(F)(F)F)n2)n1`, for which the RP-LC retention time was found to be 763 s.
